Test results as given in publication PMC7900953, “Location of a single histidine within peptide carriers increases mRNA delivery” (The Journal of Gene Medicine, 2020).

Experiments:
MDA‐MB‐231 cells [1] = assay: mRNA transfection with HK lipopolyplexes (HK peptide + DOTAP liposomes); type: cell-based; settings: HK 4 μg, mRNA 1 μg, DOTAP 1 μg; luciferase 24 h
Procedure: Transfection with HK lipopolyplexes was carried out in a manner similar to that described above, with a few exceptions. In brief, the HK peptide (4 μg) in Opti‐MEM was mixed initially with mRNA (1 μg) for 30 minutes. This was followed by adding the DOTAP cationic liposome (1,2‐dioleoyl‐3‐trimethyl ammonium‐propane; 1 μg; Roche, Basel, Switzerland) for an additional 30 minutes. The Opti‐MEM mixture (50 μl) was then added dropwise to the cells.
FIGURE 8 Comparison of mRNA transfection with DOTAP and several HK peptides. To form lipopolyplexes, the HK peptides (4 μg) in Opti‐MEM were initially mixed with mRNA (1 μg) for 30 minutes. DOTAP liposomes (1 μg) were then added, gently mixed and allowed to stand for an additional 30 min. Polyplexes were prepared as described previously. These complexes in Opti‐MEM (50 μl) were then added to the cells and, 24 hours later, the luciferase activity was measured. *p < 0.05; **p < 0.01; ***p < 0.001
Figure S4. Transfection of mRNA (1 µg) with HK peptides (4 µg) and/or DOTAP liposomes (1 µg). Cells were transfected with mRNA lipoplexes, polyplexes, or lipopolyplexes as described in the Material and Methods section, and twenty-four h later, the luciferase activity was measured. ***, P<0.001; ****, P<0.0001

MDA‐MB‐231 cells [2] = assay: Cell viability assay (trypan blue exclusion); type: cell-based; settings: polymer alone (4 µg), 5 h in Opti-MEM, then DMEM/10% FBS 19 h
Procedure: MDA‐MB‐231 cells were seeded at 5.0 × 10^4 per well in a 24‐tissue culture plate and incubated overnight in DMEM supplemented with 10% fetal bovine serum (FBS) serum. The media was then changed to Opti‐MEM and the cells were treated with either the polymer (4 μg) or the polyplex (4 μg of HK; 1 μg of mRNA) for 5 hours. After the media was changed to DMEM/10% FBS for 19 hours, the cell viability was measured using the trypan blue cell exclusion assay (Trypan Blue solution, 0.4%; Sigma‐Aldrich, St Louis, MO, USA). ^41
After the medium was changed to Opti-MEM, either the polymer (4 µg) or the polyplex (4 µg HK; 1 µg mRNA) was added to the cells for 5 h. The media was then changed to DMEM/10% FBS for 19 h and the cell viability was determined using the trypan cell exclusion assay.

[3] = Particle size, polydispersity index (PDI) and zeta potential of polyplexes (dynamic light scattering); type: physicochemical; settings: HK peptide (4 μg) + mRNA (1 μg), 25°C; for Zeta potential of polyplex / Size of polyplex: mean ± SD of three measurements; for Size of polyplex: DLS 90°, z‐average; for PDI of polyplex: DLS
Procedure: The size, PDI and zeta potential were determined with the Zetasizer (Malvern, Westborough, MA, USA) and analyzed with Zetasizer, version 6.2 (Malvern). Using dynamic light scattering at a 90° angle, the size of the particles were reported as the z‐average diameter from the intensity‐weighted size distribution. Prior to the measurements, the samples were equilibrated to 25°C for 2 minutes. Each measurement had at least 10 sub‐runs under the automatic mode of the software. The particle size, PDI and zeta potential data point represent the mean ± SD of three measurements. After mixing HK peptides (4 μg) and mRNA (1 μg) in 100 μl of defined media (Opti‐MEM, water, or DMEM/8% FBS) for 30 minutes, 100 μl of additional defined media was added to the polyplex solution (total volume 200 μl) to measure the size and PDI. To determine the zeta potential, 800 μl more of the media was added (total volume 1000 μl), mixed gently and then added to the disposable zeta cell.

MDA‐MB‐231 cells [4] = assay: In vitro uptake of HK polyplexes by flow cytometry; type: cell-based; settings: HK:mRNA 4:1, 1, 2 and 4 hours, DMEM/10% FBS
Procedure: Intracellular uptake of polymer–mRNA complex in MDA‐MB‐231 was measured by flow cytometry. Twenty‐four hours before the treatment, cells were plated in a 24‐well plate. The polymer‐mRNA polyplex was formed in Opti‐MEM at a ratio of 4:1 at room temperature for 30 minutes. After the cell culture medium was replaced with DMEM/10% FBS, H3K(+H)4b‐ or H3K4b‐mRNA polyplexes (cyanine 5'‐labeled mRNA; Trilink Biotechnologies, Inc.) were added to the cells. At several time points (1, 2 and 4 hours), transfected cells were harvested, fixed with 4% formalin/1% glutaraldehyde, and resuspended in PBS buffer for analysis. The results from the fluorescently labeled MDA‐MB‐231 cells were then acquired using Cytoflex (Beckman Coulter) and analyzed using CytExpert, version 2.3.0.84 (Beckman Coulter) on the flow cytometer.
Figure S2. Uptake of cyanine 5-labeled mRNA uptake into MDA-MB-231 cells with different peptide carriers. The percentages of cells containing labeled mRNA 1, 2, 4 hours after transfection with H3K(+H)4b (upper panel) or with H3K4b (lower panel).

trypsin = assay: Stability of HK polyplexes to enzymatic degradation; type: in vitro ADME; settings: trypsin (0.025%) 30 or 60 min; HK (0.5, 1, 4 µg):mRNA (1 µg); release of mRNA on 1% agarose gel
Procedure: After preparation of the H3K4b‐ or H3k(+H)4b‐mRNA polyplexes [w:w; HK (0.5, 1 or 4 μg):mRNA (1 μg)], these polyplexes were incubated with trypsin (0.025%) for 30 or 60 minutes. The HK polyplexes were then loaded on a 1% agarose gel and electrophoresis was carried out at 75 V for 30 minutes in TAE buffer. The gel was stained in a TAE buffer containing ethidium bromide (1 μg/ml) for 10 minutes.
[picture] Figure S3. Stability of HK polyplexes to enzymatic degradation. After preparation of the H3K4b or H3k(+H)4b mRNA polyplexes (wt:wt; HK (0.5, 1, 4 µg):mRNA (1 µg)), these polyplexes were incubated with trypsin (0.025%) for 30 or 60 min. The HK polyplexes were then loaded on a 1% agarose gel and electrophoresis was carried out at 75 V for 30 min in TAE buffer. The gel was stained in a TAE buffer containing ethidium bromide (1 µg/ml) for 10 min.

[5] = cited from earlier work
cytokines = settings: in vitro and in vivo; cited from earlier work

| Substance | mRNA carrier effectiveness compared with DOTAP liposomes (MDA‐MB‐231 cells [1]) | % Viability (MDA‐MB‐231 cells [2]) [%] | Zeta potential of polyplex ([3]; DMEM/8%FBS) [mV] | Size of polyplex ([3]; DMEM/8%FBS) [nm] | PDI of polyplex ([3]; DMEM/8%FBS) | Zeta potential of polyplex ([3]; Opti‐MEM) [mV] | Size of polyplex ([3]; Opti‐MEM) | PDI of polyplex ([3]; Opti‐MEM) | Zeta potential of polyplex ([3]; Water) [mV] | Size of polyplex ([3]; Water) [nm] | PDI of polyplex ([3]; Water) | Uptake of Cy5-labelled mRNA polyplexes into cells (MDA‐MB‐231 cells [4]) | Stability of mRNA polyplex to trypsin (trypsin) | Carrier of siRNA [5] | Cytokine induction by siRNA polyplex (cytokines) |
| --- | --- | --- | --- | --- | --- | --- | --- | --- | --- | --- | --- | --- | --- | --- | --- |
| R = KHHHKHHHKHHHHKHHHK [H3K(+H)4b, four‐branched analogue of H3K4b with one extra histidine in the second ‐HHHK‐ motif] | significantly better carriers of mRNA than the DOTAP liposomes | 96.3 | −12.7 ± 1.04 | 289 ± 38.2 | 0.307 | 2.92 ± 1.83 | 1,004 ± 61.1 nm | 0.362 | 20.77 ± 1.12 | 234.9 ± 2.7 | 0.212 | imported into the cells more than H3K4b polyplexes | reduced stability to trypsin at the 1:2 and 1:1 ratios compared to the H3k(+H)4b polyplex | effective carriers of siRNA |  |
| R = KHHHKHHHKHHHKHHHK [H3K4b] |  | 95.6 | −12.1 ± 2.22 | 578 ± 80.5 | 0.421 | −4.20 ± 2.78 | 2,030.7 ± 117.3 nm | 0.466 | 16.47 ± 0.74 | 199.9 ± 0.8 | 0.171 |  |  | effective carriers of siRNA | induced cytokines to a significantly greater degree in vitro and in vivo than the H3K(+H)4b‐siRNA polyplexes |
